From the supplement of paper PMC10307832

Columns and labels:
Experiment in all cases: relative viability (nuclei count vs DMSO), 5 days (fraction); higher = more cells survive
201T = test system: 201T
How it was run: (§1)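 Lung cancer cell lines in 1536-well plates got either a single drug or a fixed anchor-drug dose together with five library-drug doses (not always all listed) in √10 steps, by pin tool, on the day after seeding. Nuclei were counted after 5 days, and relative viability is the treated-to-vehicle ratio of nuclei counts. Values are medians of duplicate plates.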

BEN = test system: BEN
How it was run: as §1

CAL-12T = test system: CAL-12T
How it was run: as §1

COR-L 105 = test system: COR-L 105
How it was run: as §1

H3255 = test system: H3255
How it was run: as §1

HARA = test system: HARA
How it was run: as §1

HCC-15 = test system: HCC-15
How it was run: as §1

HCC-827 = test system: HCC-827
How it was run: as §1

LC-2-ad = test system: LC-2-ad
How it was run: as §1

LCLC-103H = test system: LCLC-103H
How it was run: as §1

LK-2 = test system: LK-2
How it was run: as §1

LU99A = test system: LU99A
How it was run: as §1

LXF-289 = test system: LXF-289
How it was run: as §1

NCI-H1437 = test system: NCI-H1437
How it was run: as §1

NCI-H1651 = test system: NCI-H1651
How it was run: as §1

NCI-H1792 = test system: NCI-H1792
How it was run: as §1

NCI-H2085 = test system: NCI-H2085
How it was run: as §1

NCI-H2228 = test system: NCI-H2228
How it was run: as §1

NCI-H23 = test system: NCI-H23
How it was run: as §1

NCI-H2405 = test system: NCI-H2405
How it was run: as §1

NCI-H322M = test system: NCI-H322M
How it was run: as §1

RERF-LC-KJ = test system: RERF-LC-KJ
How it was run: as §1

UMC-11 = test system: UMC-11
How it was run: as §1

O=C(O)CCCCC(CCSCc1ccccc1)SCc1ccccc1 (stereo not given) [CPI-613] + Cc1nc(NC(=O)N2CCC[C@H]2C(N)=O)sc1-c1ccnc(C(C)(C)C(F)(F)F)c1 [Alpelisib] (partner 2 µM)
relative viability (201T; first compound 5 µM): 1
relative viability (201T; first compound 15.81 µM): 0.976
relative viability (201T; first compound 50 µM): 0.996
relative viability (201T; first compound 158.11 µM): 1.01
relative viability (201T; first compound 500 µM): 1.01
relative viability (BEN; first compound 5 µM): 0.929
relative viability (BEN; first compound 15.81 µM): 0.949
relative viability (BEN; first compound 50 µM): 0.969
relative viability (BEN; first compound 158.11 µM): 0.831
relative viability (BEN; first compound 500 µM): 0.858
relative viability (CAL-12T; first compound 5 µM): 1
relative viability (CAL-12T; first compound 15.81 µM): 1.11
relative viability (CAL-12T; first compound 50 µM): 1.14
relative viability (CAL-12T; first compound 158.11 µM): 0.0352
relative viability (CAL-12T; first compound 500 µM): 0.0082
relative viability (COR-L 105; first compound 5 µM): 0.888
relative viability (COR-L 105; first compound 15.81 µM): 1.11
relative viability (COR-L 105; first compound 50 µM): 0.909
relative viability (COR-L 105; first compound 158.11 µM): 0.476
relative viability (COR-L 105; first compound 500 µM): 0.161
relative viability (H3255; first compound 5 µM): 0.695
relative viability (H3255; first compound 15.81 µM): 0.576
relative viability (H3255; first compound 50 µM): 0.695
relative viability (H3255; first compound 158.11 µM): 0.639
relative viability (H3255; first compound 500 µM): 0.672
relative viability (HARA; first compound 5 µM): 0.856
relative viability (HARA; first compound 15.81 µM): 0.681
relative viability (HARA; first compound 50 µM): 0.942
relative viability (HARA; first compound 158.11 µM): 0.401
relative viability (HARA; first compound 500 µM): 0.0463
relative viability (HCC-15; first compound 5 µM): 0.942
relative viability (HCC-15; first compound 15.81 µM): 0.805
relative viability (HCC-15; first compound 50 µM): 0.828
relative viability (HCC-15; first compound 158.11 µM): 0.562
relative viability (HCC-15; first compound 500 µM): 0.35
relative viability (HCC-827; first compound 5 µM): 0.972
relative viability (HCC-827; first compound 15.81 µM): 1
relative viability (HCC-827; first compound 50 µM): 0.974
relative viability (HCC-827; first compound 158.11 µM): 0.47
relative viability (HCC-827; first compound 500 µM): 0.218
relative viability (LC-2-ad; first compound 5 µM): 0.83
relative viability (LC-2-ad; first compound 15.81 µM): 0.818
relative viability (LC-2-ad; first compound 50 µM): 0.8
relative viability (LC-2-ad; first compound 158.11 µM): 0.201
relative viability (LC-2-ad; first compound 500 µM): 0.006
relative viability (LCLC-103H; first compound 5 µM): 0.845
relative viability (LCLC-103H; first compound 15.81 µM): 0.974
relative viability (LCLC-103H; first compound 50 µM): 0.883
relative viability (LCLC-103H; first compound 158.11 µM): 0.873
relative viability (LCLC-103H; first compound 500 µM): 0.964
relative viability (LK-2; first compound 5 µM): 1.01
relative viability (LK-2; first compound 15.81 µM): 0.98
relative viability (LK-2; first compound 50 µM): 1.06
relative viability (LK-2; first compound 158.11 µM): 1.16
relative viability (LK-2; first compound 500 µM): 0.82
relative viability (LU99A; first compound 5 µM): 0.535
relative viability (LU99A; first compound 15.81 µM): 0.51
relative viability (LU99A; first compound 50 µM): 0.461
relative viability (LU99A; first compound 158.11 µM): 0.227
relative viability (LU99A; first compound 500 µM): 0.0551
relative viability (LXF-289; first compound 5 µM): 1.02
relative viability (LXF-289; first compound 15.81 µM): 0.961
relative viability (LXF-289; first compound 50 µM): 0.988
relative viability (LXF-289; first compound 158.11 µM): 0.318
relative viability (LXF-289; first compound 500 µM): 0.0306
relative viability (NCI-H1437; first compound 5 µM): 0.944
relative viability (NCI-H1437; first compound 15.81 µM): 0.961
relative viability (NCI-H1437; first compound 50 µM): 1.03
relative viability (NCI-H1437; first compound 158.11 µM): 0.16
relative viability (NCI-H1437; first compound 500 µM): 0.0244
relative viability (NCI-H1651; first compound 5 µM): 0.969
relative viability (NCI-H1651; first compound 15.81 µM): 0.895
relative viability (NCI-H1651; first compound 50 µM): 0.967
relative viability (NCI-H1651; first compound 158.11 µM): 0.41
relative viability (NCI-H1651; first compound 500 µM): 0.116
relative viability (NCI-H1792; first compound 5 µM): 0.675
relative viability (NCI-H1792; first compound 15.81 µM): 0.646
relative viability (NCI-H1792; first compound 50 µM): 0.71
relative viability (NCI-H1792; first compound 158.11 µM): 0.555
relative viability (NCI-H1792; first compound 500 µM): 0.709
relative viability (NCI-H2085; first compound 5 µM): 1.01
relative viability (NCI-H2085; first compound 15.81 µM): 0.927
relative viability (NCI-H2085; first compound 50 µM): 0.906
relative viability (NCI-H2085; first compound 158.11 µM): 0.591
relative viability (NCI-H2085; first compound 500 µM): 0.242
relative viability (NCI-H2228; first compound 5 µM): 0.799
relative viability (NCI-H2228; first compound 15.81 µM): 0.6
relative viability (NCI-H2228; first compound 50 µM): 0.547
relative viability (NCI-H2228; first compound 158.11 µM): 0.344
relative viability (NCI-H2228; first compound 500 µM): 0.0239
relative viability (NCI-H23; first compound 5 µM): 0.684
relative viability (NCI-H23; first compound 15.81 µM): 0.604
relative viability (NCI-H23; first compound 50 µM): 0.685
relative viability (NCI-H23; first compound 158.11 µM): 0.143
relative viability (NCI-H23; first compound 500 µM): 0.0565
relative viability (NCI-H2405; first compound 5 µM): 0.882
relative viability (NCI-H2405; first compound 15.81 µM): 0.78
relative viability (NCI-H2405; first compound 50 µM): 0.778
relative viability (NCI-H2405; first compound 158.11 µM): 0.772
relative viability (NCI-H2405; first compound 500 µM): 0.734
relative viability (NCI-H322M; first compound 5 µM): 0.746
relative viability (NCI-H322M; first compound 15.81 µM): 0.721
relative viability (NCI-H322M; first compound 50 µM): 0.729
relative viability (NCI-H322M; first compound 158.11 µM): 0.416
relative viability (NCI-H322M; first compound 500 µM): 0.757
relative viability (RERF-LC-KJ; first compound 5 µM): 0.748
relative viability (RERF-LC-KJ; first compound 15.81 µM): 1.34
relative viability (RERF-LC-KJ; first compound 50 µM): 0.757
relative viability (RERF-LC-KJ; first compound 158.11 µM): 0.869
relative viability (RERF-LC-KJ; first compound 500 µM): 0.733
relative viability (UMC-11; first compound 5 µM): 0.89
relative viability (UMC-11; first compound 15.81 µM): 0.964
relative viability (UMC-11; first compound 50 µM): 1.02
relative viability (UMC-11; first compound 158.11 µM): 0.398
relative viability (UMC-11; first compound 500 µM): 0.0725
